Test results from patent US12564644B2, “Cyclodextrin complexes of specialized proresolving mediators” (THETIS PHARMACEUTICALS LLC, priority 2022, dated 2026).

What was measured:
[1] = Oral pharmacokinetics, RvE1 in blood plasma after single oral gavage (Example 12); format: in vivo; conditions: mice
Method: To establish the comparative oral pharmacokinetics (“PK”) of RvE1 MgLys alone (“RvE1 Control”) and RvE1 MgLys complexed with gamma-cyclodextrin (“RvE1 Complex”), a study was conducted to investigate RvE1 exposure in blood plasma following a single dose of RvE1 Control or RvE1 Complex administered via oral gavage at various timepoints up to 8 hours of 4 mg/kg of RvE1. Quantitative measurement of RvE1 in blood plasma was determined by HPLC-MS/MS performed on a Halo Guard column (Halo C18 4.6×150 mm, 2.7 μm), mounted on an Agilent HPLC system equipped with a UV detector (272 nm detection).
Sixty five (65) male C57B16 mice were randomized into 3 experimental groups at 8 weeks of age: baseline control (“Baseline”, n=5), RvE1 Control (n=30) and the RvE1 Complex (n=30). Prior to administration of test article, the mice in the Baseline group were sacrificed and blood was drawn to establish the endogenous levels of RvE1 in plasma. The 60 remaining mice received a single dose of RvE1 Control or RvE1 Complex. Five (5) mice in each group were sacrificed at each of the following timepoints to enable the determination of an RvE1 concentration-versus-time curve: 15 minutes, 30 minutes, 1, 2—, 4- and 8-hours post-dose. At the time of sacrifice blood was drawn into EDTA-treated tubes and immediately frozen.

[2] = Solid-state chemical stability by HPLC, 16 weeks accelerated conditions (Example 8); format: physicochemical; conditions: 40° C., 75% relative humidity, exposed to air
[3] = Long-term solid-state chemical stability by HPLC, 24 weeks accelerated conditions (Example 9); format: physicochemical; conditions: for RvE1 Area % (error +/− 1%) Baseline: 40° C., 75% relative humidity, exposed to air; for % Change at Week 24 vs Baseline (degradation rate) / RvE1 Area % (error +/− 1%) Week 8 / RvE1 Area % (error +/− 1%) Week 16 / RvE1 Area % (error +/− 1%) Week 24: accelerated conditions
Method: The stability of RvE1-MgLys alone (“RvE1 Control”) and complexed with cyclodextrins (“RvE1 CD Complexes”) was evaluated. Samples of the test articles were placed in open test tubes and maintained at 40° C. and 75% relative humidity, exposed to air, for 16 weeks. […] Briefly, HPLC analysis was performed on a Halo Guard column (Halo C18 4.6×150 mm, 2.7 μm), mounted on an Agilent HPLC system equipped with a UV detector (272 nm detection). The mobile phase consisted of a gradient between solution A, water, and solution B, methanol, both containing 100 mM of ammonium formate at pH 4.0. The gradient program was 95-0% with respect to solution A and 5-100% with respect to solution B. The flow rate was 0.9 mL/min over 50 minutes. Lack of stability was indicated by a reduction in the area percent purity (area %) of the single major peak of RvE1 (retention time of 31.3 minutes) and the appearance of new HPLC peaks or an increase in the area % of pre-existing impurities. All HPLC measurements of RvE1 purity and degradant levels were calculated based on area percent relative to the detectable components of the molecule including isomers and epimers of RvE1, impurities and degradants induced by the test conditions.
A study of the chemical stability of both RvE1-Mg-Lys alone and sodium RvE1 (“Na-RvE1”) alone and complexed with cyclodextrins was evaluated over 24 weeks. Samples of the test articles as solids were placed in open test tubes and maintained at 40° C. and 75% relative humidity, exposed to air.

[4] = Chemical stability in solution (deionized water) by HPLC, 16 weeks accelerated conditions (Example 10); format: physicochemical; conditions: for RvE1 Area % Baseline: 2 mg/ml of RvE1, 40° C., 75% relative humidity, exposed to air; for % Change at Week 16 vs Baseline / RvE1 Area % Week 8 / RvE1 Area % Week 16: 2 mg/ml of RvE1, accelerated conditions
Method: The stability of […] alone (“RvE1 Control”) and complexed with cyclodextrins (“RvE1 CD Complexes”) was evaluated. Samples of the test articles were placed in open test tubes and maintained at 40° C. and 75% relative humidity, exposed to air, for 16 weeks. […] Briefly, HPLC analysis was performed on a Halo Guard column (Halo C18 4.6×150 mm, 2.7 μm), mounted on an Agilent HPLC system equipped with a UV detector (272 nm detection). The mobile phase consisted of a gradient between solution A, water, and solution B, methanol, both containing 100 mM of ammonium formate at pH 4.0. The gradient program was 95-0% with respect to solution A and 5-100% with respect to solution B. The flow rate was 0.9 mL/min over 50 minutes. Lack of stability was indicated by a reduction in the area percent purity (area %) of the single major peak of RvE1 (retention time of 31.3 minutes) and the appearance of new HPLC peaks or an increase in the area % of pre-existing impurities. All HPLC measurements of RvE1 purity and degradant levels were calculated based on area percent relative to the detectable components of the molecule including isomers and epimers of RvE1, impurities and degradants induced by the test conditions. The chemical stability of […] or Na-RvE1 alone and complexed with cyclodextrins in solution was evaluated. Samples of the test articles dissolved in deionized water at a concentration of 2 mg/ml of RvE1 were placed in open test tubes and maintained at 40° C. and 75% relative humidity, exposed to air, over a period of 16 weeks.

[5] = Solid-state physical stability, visual, ambient conditions 168 hours (Example 11); format: physicochemical; conditions: open test tubes, 18-22° C., relative humidity 52% to 72%
Method: The solid-state physical stability of […] alone (“RvE1 Control”) […]-cyclodextrin complex (“RvE1 Complex”) was evaluated (FIG. 24A-D). Samples of the test articles as solids were placed in open test tubes under ambient conditions over a period of 168 hours, at temperature between 18-22° C. and relative humidity between 52% and 72%. The solid-state physical stability was assessed visually based on whether the substance retained its form as a solid powder or transitioned to a liquid form.

[6] = Solid-state chemical stability by HPLC, 16 weeks accelerated conditions (Example 8); format: physicochemical
Method: The stability of […] alone (“RvE1 Control”) and complexed with cyclodextrins (“RvE1 CD Complexes”) was evaluated. Samples of the test articles were placed in open test tubes and maintained at 40° C. and 75% relative humidity, exposed to air, for 16 weeks. […] Briefly, HPLC analysis was performed on a Halo Guard column (Halo C18 4.6×150 mm, 2.7 μm), mounted on an Agilent HPLC system equipped with a UV detector (272 nm detection). The mobile phase consisted of a gradient between solution A, water, and solution B, methanol, both containing 100 mM of ammonium formate at pH 4.0. The gradient program was 95-0% with respect to solution A and 5-100% with respect to solution B. The flow rate was 0.9 mL/min over 50 minutes. Lack of stability was indicated by a reduction in the area percent purity (area %) of the single major peak of RvE1 (retention time of 31.3 minutes) and the appearance of new HPLC peaks or an increase in the area % of pre-existing impurities. All HPLC measurements of RvE1 purity and degradant levels were calculated based on area percent relative to the detectable components of the molecule including isomers and epimers of RvE1, impurities and degradants induced by the test conditions.

[7] = accelerated conditions, baseline
[8] = accelerated conditions, week 16

## CC[C@@H](O)/C=C/C=C\C[C@@H](O)/C=C/C=C/C=C\[C@@H](O)CCCC(=O)O.CC[C@@H](O)/C=C/C=C\C[C@@H](O)/C=C/C=C/C=C\[C@@H](O)CCCC(=O)O.NCCCC[C@H](N)C(=O)[O-].NCCCC[C@H](N)C(=O)[O-].[Mg+2] [RvE1 Control, RvE1 magnesium dilysinate]
[1]; 4 mg/kg of RvE1
  AUC (0 to 8 hrs): 15.2 ng·h/mL
  Cmax: 45.5 ng/mL
  Tmax: 15 min
[1]; 4 mg/kg of RvE1, 15 min
  RvE1 plasma concentration 15 min: 45.5 ng/mL
[1]; 4 mg/kg of RvE1, 30 min
  RvE1 plasma concentration 30 min: 6.3 ng/mL
[1]; 4 mg/kg of RvE1, 1 hr
  RvE1 plasma concentration 1 hr: 1.2 ng/mL
[1]; 4 mg/kg of RvE1, 2 hr
  RvE1 plasma concentration 2 hr: 0.2 ng/mL
[1]; 4 mg/kg of RvE1, 4 hr
  RvE1 plasma concentration 4 hr: 0.3 ng/mL
[1]; 4 mg/kg of RvE1, 8 hr
  RvE1 plasma concentration 8 hr: 0.1 ng/mL
[2]; week 16, listed as RvE1-MgLys
  RvE1 Area % Week 16: 80.7%
[2]; open test tubes, baseline, listed as RvE1-MgLys
  RvE1 Area % Baseline: 94.0%
[3]; listed as RvE1 Mg-Lys
  RvE1 Area % (error +/− 1%) Baseline: 94.8%
  % Change at Week 24 vs Baseline (degradation rate): 16.6%
[3]; listed as RvE1 MgLys control
  RvE1 Area % (error +/− 1%) Baseline: 94.8%
[3]; listed as RvE1-MgLys control
  % Change at Week 24 vs Baseline (degradation rate): 16.6%
[3]
  RvE1 Area % (error +/− 1%) Week 8: 88.4%
  RvE1 Area % (error +/− 1%) Week 16: 82.3%
[3]; week 24, listed as RvE1-MgLys Control
  RvE1 Area % (error +/− 1%) Week 24: 79.1%
[3]; week 24, listed as RvE1 Mg-Lys
  RvE1 Area % (error +/− 1%) Week 24: 79.1%
[4]
  RvE1 Area % Baseline: 94.8%
  % Change at Week 16 vs Baseline: 45.7%
  RvE1 Area % Week 8: 84.3%
[4]; week 16, listed as RvE1-MgLys Control
  RvE1 Area % Week 16: 51.5%
[4]; week 16, listed as RvE1 Mg-Lys
  RvE1 Area % Week 16: 51.5%
[5]; 24 and 168 hours
  physical form, visual: gel-like substance
[5]; 8 hours
  physical form, visual: began to agglomerate and turn a darker color
[5]; 8 hours, listed as RvE1-Control
  physical form, visual: remained in powder form
[5]; baseline
  physical form, visual: powder form
[6]; 40° C., 75% relative humidity, exposed to air
  % Change at Week 16 vs Baseline (degradation rate): 14.1%
[6]; 40° C., 75% relative humidity, exposed to air, week 8
  RvE1 Area % Week 8: 86.7%
[6]; 40° C., 75% relative humidity, exposed to air, week 16
  RvE1 Area % Week 16: 80.7%
[6]; [7]
  # of Deg. Peaks ≥0.20% Baseline: 6
  # of Deg. Peaks ≥1.00% Baseline: 2
[6]; accelerated conditions, week 8
  # of Deg. Peaks ≥0.20% Week 8: 19
  # of Deg. Peaks ≥1.00% Week 8: 4
[6]; [8]
  # of Deg. Peaks ≥0.20% Week 16: 19
  # of Deg. Peaks ≥1.00% Week 16: 8
[6]; open test tubes, 40° C., 75% relative humidity, exposed to air, baseline
  RvE1 Area % Baseline: 94%

## CC[C@@H](O)/C=C/C=C/C[C@@H](O)/C=C/C=C/C=C/[C@@H](O)CCCC(=O)[O-].[Na+] [Na-RvE1, sodium RvE1]
[3]
  RvE1 Area % (error +/− 1%) Baseline: 96.2%
  % Change at Week 24 vs Baseline (degradation rate): 100.0%
  RvE1 Area % (error +/− 1%) Week 8: 78.0%
  RvE1 Area % (error +/− 1%) Week 16: 49.8%
[3]; listed as Na-RvE1 control
  RvE1 Area % (error +/− 1%) Baseline: 96.2%
  % Change at Week 24 vs Baseline (degradation rate): 100%
[3]; week 24
  RvE1 Area % (error +/− 1%) Week 24: 0.0%
[3]; week 24, listed as Na-RvE1 Control
  RvE1 Area % (error +/− 1%) Week 24: 0%
[4]
  RvE1 Area % Baseline: 96.2%
  % Change at Week 16 vs Baseline: 80.7%
  RvE1 Area % Week 8: 36.0%
[4]; week 16
  RvE1 Area % Week 16: 18.6%
[4]; week 16, listed as Na-RvE1 Control
  RvE1 Area % Week 16: 18.6%
